Data on five compounds can be found in patent US20250206732A1, “COMPOUNDS AND METHODS FOR THE TARGETED DEGRADATION OF KRAS” (Arvinas Operations, Inc., priority 2022, published 2025).

This assay addresses T1, AsPC-1 HiBiT-KRASG12D (Homo sapiens, UniProt P01116, G12D).
T1 construct: insert the HiBiT tag onto the N-terminus of one or more of the endogenous KRAS alleles; endogenous in cells; host or cells: AsPC-1 (ATCC CRL-1682), CRISPR-Cas9 knock-in clone, one tagged allele
Nature of the assay: HiBiT degradation assay (G12D), AsPC-1 HiBiT-KRASG12D cells. It is filed as cell-based. The conditions noted are these: 24 hours treatment; for Dmax: ASPC1, AsPC-1 HiBiT-KRASG12D cells, maximum degradation observed; for DC50: AsPC-1 HiBiT-KRASG12D cells, HiBiT luminescence. Put shortly:
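Endogenous KRASG12D levels were measured via an N-terminal HiBiT tag knocked into AsPC-1 cells. Cells received compound titrations for 24 hours, and HiBiT luminescence was detected after a 45-minute lytic reagent incubation at room temperature.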
(With HiBiT, luminescence reflects the tagged protein that the partner subunit can reach.)

T1 sequence (P01116 1-188 isoform P01116-2 G12D): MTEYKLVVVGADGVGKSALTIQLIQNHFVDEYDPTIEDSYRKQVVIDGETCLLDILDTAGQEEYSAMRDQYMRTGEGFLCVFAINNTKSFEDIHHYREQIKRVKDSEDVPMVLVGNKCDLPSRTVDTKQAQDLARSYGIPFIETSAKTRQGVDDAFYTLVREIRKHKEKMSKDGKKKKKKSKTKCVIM

In the case of `CCc1cccc2cc(O)cc(-c3ncc4c(N5CCCCCC5)nc(OC[C@@H]5CC[C@@H](COC(=O)N6CC(Oc7cc([C@H](C(=O)N8C[C@H](O)C[C@H]8C(=O)N[C@@H](C)c8ccc(-c9scnc9C)cc8)C(C)C)on7)C6)N5C)nc4c3F)c12` [Compound 241], the maximal degradation (Dmax) (commonly the largest share of the target that was removed) is 60 to 80% and the DC50 (as a rule, the concentration at which degradation of the target reaches its halfway point) was < 0.6 µM.
In the same order, the values of `Cc1ncsc1-c1ccc([C@H](C)NC(=O)[C@@H]2C[C@@H](O)CN2C(=O)[C@@H](c2cc(N3CCN(C(=O)OC[C@@H]4CC[C@@]5(COc6nc(N7CC8CCC(C7)N8)c7cnc(-c8cc(O)cc9cccc(Cl)c89)c(F)c7n6)CCCN45)CC3)no2)C(C)C)cc1` (relative stereo) [Compound 268, ((3S,7aR)-7a-(((4-((1R,5S)-3,8-diazabicyclo[3.2.1]octan-3-yl)-7-(8-chloro-3-hydroxynaphthalen-1-yl)-8-fluoropyrido[4,3-d]pyrimidin-2-yl)oxy)methyl)hexahydro-1H-pyrrolizin-3-yl)methyl 4-(5-((R)-1-((2S,4R)-4-hydroxy-2-(((S)-1-(4-(4-methylthiazol-5-yl)phenyl)ethyl)carbamoyl)pyrrolidin-1-yl)-3-methyl-1-oxobutan-2-yl)isoxazol-3-yl) piperazine-1-carboxylate] are 80 to 100% and < 0.6 µM.
`Cc1ncsc1-c1ccc([C@H](C)NC(=O)[C@@H]2C[C@@H](O)CN2C(=O)[C@@H](c2cc(N3CC4(CCN(CCOc5nc(N6CC7CCC(C6)N7)c6cnc(-c7cc(O)cc8ccc(F)c(F)c78)c(F)c6n5)CC4)C3)no2)C(C)C)cc1` (relative stereo) [Compound 68, (2S,4R)-1-[(2R*)-2-[3-(7-{2-[(4-{3,8-diazabicyclo[3.2.1]octan-3-yl}-7-(7,8-difluoro-3-hydroxynaphthalen-1-yl)-8-fluoropyrido[4,3-d]pyrimidin-2-yl)oxy]ethyl}-2,7-diazaspiro[3.5]nonan-2-yl)-1,2-oxazol-5-yl]-3-methylbutanoyl]-4-hydroxy-N-[(1S)-1-[4-(4-methyl-1,3-thiazol-5-yl)phenyl]ethyl]pyrrolidine-2-carboxamide]: the Dmax is 80 to 100% and the 50% degradation concentration (DC50) was < 0.6 µM.
With `CCc1cccc2cc(O)cc(-c3ncc4c(N5CC6CCC(C5)N6)nc(OC[C@@]56CCCN5[C@H](COC(=O)N5CCN(c7cc([C@H](C(=O)N8C[C@H](O)C[C@H]8C(=O)N[C@@H](C)c8ccc(-c9scnc9C)cc8)C(C)C)on7)CC5)CC6)nc4c3F)c12` (stereo in doubt) [Compound 7], the DC50 was < 0.6 µM.
Turning to `CCc1cccc2cc(O)cc(-c3ncc4c(N5CC6CCC(C5)N6)nc(OC[C@]56CCCN5[C@H](COC(=O)N5CCN(c7cc([C@H](C(=O)N8C[C@H](O)C[C@H]8C(=O)N[C@@H](C)c8ccc(-c9scnc9C)cc8)C(C)C)on7)C[C@H]5C)CC6)nc4c3F)c12` [Compound 120, [(3S,7aR)-7a-{[(4-{3,8-diazabicyclo[3.2.1]octan-3-yl}-7-(8-ethyl-3-hydroxynaphthalen-1-yl)-8-fluoropyrido[4,3-d]pyrimidin-2-yl)oxy]methyl}-hexahydro-1H-pyrrolizin-3-yl]methyl (2R)-4-{5-[(2R)-1-[(2S,4R)-4-hydroxy-2-{[(1S)-1-[4-(4-methyl-1,3-thiazol-5-yl)phenyl]ethyl]carbamoyl}pyrrolidin-1-yl]-3-methyl-1-oxobutan-2-yl]-1,2-oxazol-3-yl}-2-methylpiperazine-1-carboxylate], the Dmax fell in the range of 80 to 100% and the DC50 is < 0.6 µM.
